The nature of data set [1]: Cytotoxicity assay, 3T3-L1. In kind it is cell-based. As to conditions: mouse, 3T3-L1 cells (preadipocytes); 3T3-L1, 48 hours, maximum concentration 100 μM. The protocol: (§1) To measure the cytotoxicity of the compound represented by Chemical Formula 1 (Chemical Formula 1-1), toxicity was measured in mouse preadipocyte 3T3-L1 cell line, human malignant melanoma A375 cell line, mouse malignant melanoma B16F10 cell line, human oral cancer MDA-MB-435 cell line, mouse breast cancer 4T1 cell line, human breast cancer MCF7 cell line, human brain cancer U87MG cell line, human glioblastoma U373MG cell line, human cervical cancer HeLa cell line, mouse embryonic fibroblast (MEF) cell line, human embryonic kidney HEK293T cell line (Korea Cell Line Bank). First, 1×10^4 cells were divided into 200 μl each in a 96-well plate using Dulbecco's Modified Eagle's Medium (DMEM) supplemented with 10% fetal bovine serum (FBS), […] streptomycin, and 50 U/ml penicillin, while maintaining various cells at 37r in an atmosphere of 5% CO2. The cells were treated with the compound of Chemical Formula 1-1 of the present invention at a maximum concentration of 100 μM and cultured for 48 hours under the same culture conditions. After the incubation, the culture media were removed and the cytotoxicity test results were confirmed (Table 2 and FIG. 3 below).

A further data set is described as follows: Cytotoxicity assay, A375. In kind it is cell-based. As to conditions: human, A375 cells (malignant melanoma); A375, 48 hours, maximum concentration 100 μM. The protocol:
as §1

The nature of data set [2]: Cytotoxicity assay, MDA-MB-435. As to conditions: human, MDA-MB-435 cells (printed as oral cancer); MDA-MB-435, 48 hours, maximum concentration 100 μM. Type of data set: cell-based. The protocol: as §1
Data set [3] in a line: Cytotoxicity assay, U373MG. Type of data set: cell-based. As to conditions: human, U373MG cells (glioblastoma), maximum concentration 100 μM. The protocol:
as §1

Another data set can be described thus: Cytotoxicity assay, MEF. Type of data set: cell-based. As to conditions: mouse, MEF cells (embryonic fibroblasts), maximum concentration 100 μM. The protocol:
as §1

For data set [4], the system named is Wnt activity (HEK293T-TopFLASH cells). The data set is described as follows: TopFLASH luciferase assay, HEK293T-TopFLASH stable cell line (Wnt3a activity assay). As to conditions: 1-50 μM, 24 hours. Type of data set: cell-based, human. The protocol: In order to measure the level of Wnt activity of the compound of Chemical Formula 1-1, TopFLASH luciferase assay was performed on the HEK293T cell line. The TopFLASH luciferase assay was performed by creating a HEK293T-TopFLASH stable cell line with a viral vector made by combining Luciferase (reporter gene) with the TCF7 promoter. HEK293T-TopFLASH cells were cultured in a 96-well plate (1×10^4 cells/well), and the next day, the cells were treated with 1-50 μM of the compound of Chemical Formula 1-1 and confirmed by One-Glo™ (modified luciferin, Pormega, USA) after 24 hours.

A further data set relates to mouse 3T3-L1 cell line. Nature of the data set: Adipogenesis inhibitory effect test, Oil Red O staining. In kind it is cell-based. As to the method: The adipogenesis inhibitory activity of Chemical Formula 1 according to the present invention was measured through Oil Red O staining in mouse 3T3-L1 cell line. First, 3T3-L1 cells were placed in a 48-well plate (1×10^4 cell/well) and cultured for 24 hours in a 37° C. CO2 incubator. The next day, the cells were replaced with the normal culture media (Undifferentiated media; UND) and the differentiation induction medium (Differentiation media; DM), respectively, followed by treatment with 2.5-10 μM of Chemical Formula 1-1 for 48 hours. Then, the cells were replaced with the normal culture media (Maintainment media; MM), and cultured with 2.5-10 μM of Chemical Formula 1-1 for 72 hours, and then treated with Oil Red O.
In addition, the same experiment was conducted with the compound of Chemical Formula 1-1 at a fixed concentration of 7.5 μM and Wnt3a-conditional media at 10-2.5%.

Another data set has as its system MC3T3-E1 cell line. Nature of the data set: Cytotoxicity assay in MC3T3-E1 pre-osteoblasts. Type of data set: cell-based, mouse. As to conditions: concentration range of 50 μM or less, 7 days, FIG. 14. The protocol:
In order to measure the cytotoxicity of the compound represented by Chemical Formula 1 (Chemical Formula 1-1), toxicity was measured in the MC3T3-E1 cell line (Korea Cell Line Bank), which is a pre-osteoblast related to bone formation.
Specifically, a cytotoxicity test was performed to determine the in vivo safety of Chemical Formula 1-1 above. MC3T3-E1 cells, which are mouse osteoblasts, were inoculated into a 96-well plate at a concentration of 5×10^3 cell/well, and incubated overnight in growth media containing alpha-minimum essential media (alpha-MEM, JBI #008-53) supplemented with 10% fetal bovine serum (FBS, Gibco #16000, USA) and 1× antibiotics (Gibco #15240062, USA). […] After incubation, the media were removed, 90 μl of the media and 10 μl of WTS solution were added, and after 1 hour, the absorbance was measured at 450 nm using a microplate reader.

In a further data set the test system is MC3T3-E1 cells. The data set is described as follows: Alkaline phosphatase (ALP) staining of MC3T3-E1 cells. Type of data set: cell-based, mouse. As to conditions: 5, 10, and 20 νM, 7 days, FIG. 15. From the text: In order to analyze the effect of the compound of Chemical Formula 1 according to the present invention on ALP activity, the morphology of MC3T3-E1 cells according to the treatment with the compound of Chemical Formula 1 according to the present invention was confirmed by alkaline phosphatase (ALP) staining of the MC3T3-E1 cell line.
In the present Example, the effect of Chemical Formula 1-1 on the activity of alkaline phosphatase (ALP), which is one of the representative markers of osteoblast differentiation, was measured. MC3T3-E1 cells, which are mouse osteoblasts, were inoculated into a 96-well plate at a concentration of 5×10^3 cell/well, and incubated overnight in growth media containing alpha-minimum essential media (alpha-MEM, JBI #008-53) supplemented with 10% fetal bovine serum (FBS, Gibco #16000, USA) and 1× antibiotics (Gibco #15240062, USA). As a negative control, an alpha minimum essential medium containing 10% FBS was used. As positive controls, 100 μg/ml of ALP-activating ascorbic acid and 10 mM of β-glycerophosphate were mixed, and the positive controls were exchanged with media added with 5, 10, and 20 νM of Chemical Formula 1-1 on Day 3, and treated for 7 days. After 7 days, the media were discarded, and the cells were washed with PBS, and fixed with 10% formalin for 1 minute. […]

For the molecule `CC(C)CC1NC(=O)C2CCCN2C(=O)C(C(O)C(C)C)NC(=O)CNC(=O)C(C(C)O)NC(=O)C2NC(=O)C(NC(=O)/C=C/c3ccccc3C(O)C(C)O)C(C)OC(=O)C(CC(N)=O)NC(=O)C(NC(=O)C(O)NC1=O)C(O)c1ccc(O)c(c1)Oc1ccc2cc1` (centres unmarked) [Chemical Formula 1-1], the concentration for half-maximal inhibition (IC50) – broadly, the concentration that gives 50% inhibition – at 48 h is greater than 100 µM in data set [1]; greater than 100 µM in “Cytotoxicity assay, A375”; greater than 100 µM in data set [2]; 89.5 µM in data set [3]; greater than 100 µM in “Cytotoxicity assay, MEF”. For the same molecule, the “Wnt activity (luciferase values)” value was “greatly increased” in data set [4] (compound alone, FIG. 4) and “greatly increased” in data set [4] (simultaneous treatment with Wnt3a-conditional media (2.5%), FIG. 5). Besides, the adipogenesis inhibitory activity result with mouse 3T3-L1 cell line (2.5-10 μM, Oil Red O, FIG. 8) was “exhibited the adipogenesis inhibitory activity in a concentration-dependent manner”; in the data set with mouse 3T3-L1 cell line (fixed 7.5 μM with Wnt3a-conditional media at 10-2.5%, FIG. 9) it was “excellent”. In addition, in the data set with MC3T3-E1 cell line, the cytotoxicity result is given as “did not exhibit cytotoxicity”. The “alkaline phosphatase staining (ALP) positive cells” value in the data set with MC3T3-E1 cells is reported as “strongly stained in a concentration-dependent manner”.

The values above are taken from patent publication US20240182525A1, “NOVEL BICYCLIC COMPOUND, OPTICAL ISOMER THEREOF OR PHARMACEUTICALLY ACCEPTABLE SALT THEREOF, USE THEREOF, AND PREPARATION METHOD THEREFOR” (KOREARESEARCH INSTITUTE OF BIOSCIENCE AND BIOTECHNOLOGY, priority 2021, published 2024).
